Here are results for six compounds from patent US20160303141A1, “CORTEXOLONE 17alpha-PROPIONATE FOR USE IN THE TREATMENT OF SKIN WOUNDS AND/OR ATROPHIC SKIN DISORDERS” (CASSIOPEA S.P.A., priority 2013, published 2016).

Test [1] relates to testosterone propionate (TP) response. Briefly: Local antiandrogenic activity, flank organ test in hamster. The class given is in vivo. The conditions noted are these: for Percent inhibition of testosterone propionate (TP) response: topical on flank organ; for Mean inhibition (%): mean over daily doses 100, 200, 400 μg + 4 μg TP.
Test [2] relates to Adult human dermal fibroblasts (HDF). Kind of test: In-vitro fibroblast proliferation (BrdU incorporation). The class given is cell-based. As to conditions: for Fibroblast proliferation (Δ% vs. control): Table 2 summary; for proliferative stimulating effect (in words): same test and conditions as Example 1; for Δ % vs. control (proliferation) / Absorbance ± SD Treated: 72 h; for Absorbance ± SD Treated: BrdU, 450 nm. The method, then: Fibroblast proliferation: Adult human dermal fibroblasts (HDF) were appropriately grown, and were employed between 2nd and 6th passage. […] Twenty-four hours before end of incubation, the cells were labelled with Bromo deoxyuridine (BrdU, 10 μL/well) and its incorporation into DNA was evaluated measuring the absorbance of the samples in an ELISA reader at 450 nm. The proliferation rate of the fibroblasts was evaluated on the increase of the absorbance of the samples.

The test system is the same in test [3]. Briefly: In-vitro effect on extra-cellular protein synthesis (Bradford). As to conditions: for Protein synthesis (Δ% vs. control): Table 2 summary; for effect on extracellular protein synthesis (in words): same test and conditions as Example 3; for Δ % vs. control (protein concentration) / Protein concentration Treated: 72 h; for Protein concentration Treated: supernatant. The class given is cell-based. As for the experimental part: Adult human dermal fibroblasts (HDF) were appropriately grown, and were employed between 2nd and 6th passage. The fibroblasts, plated in a 24-wells plate at the density of 12×10^4 cells/mL (1 mL/well), were incubated for 72 hours with rhEGF (100 nM) as positive control, or with cortexolone 17α-propionate at concentration of 5 μM, 25 μM, 50 μM. After 72 h of incubation the supernatant were mixed with 1 mL of Bradford reagent and incubated for 45 minutes at room temperature. Each sample was then read in a spectrophotometer at 595 nm.

The test system is the same in test [4]. Kind of test: In-vitro effect on synthesis of type I procollagen (PIP ELISA). The class given is cell-based. As to conditions: for Procollagen I Synthesis (Δ% vs. control): Table 2 summary; for effect on synthesis of type I procollagen (in words): same test and conditions as Example 4; for Δ % vs. control (PIP) / PIP concentration: 48 h; for PIP concentration: supernatant. As for the experimental part:
Adult human dermal fibroblasts (HDF) were appropriately grown, and were employed between 2nd and 4th passage. […] After the incubation the supernatant were collected and dosed for the terminal peptide of type I procollagen (PIP) with ELISA kit. The measurement of PIP concentration in the culture medium is representative for the production of collagen type I. The results of type I procollagen concentration (PIP) are reported in the Table 6 below: […]
For orientation: ELISA stands for enzyme-linked immunosorbent assay.

Test [5] has the same test system. Briefly: In-vitro fibroblast migration (image density). The class given is cell-based. The conditions noted are these: for Image density 6 h: 6 h after insert removal; for Image density 24 h: 24 h after insert removal; for Image density t0: immediately after insert removal; for Δ (%) vs. vehicle (migration): increase t0-24 h. As for the experimental part: Fibroblast migration: Adult human dermal fibroblasts (HDF) were appropriately grown, and were employed between 2nd and 6th passage. […] After incubation the culture-insert was removed and the cells were maintained in culture for further 24 hours. Immediately after insert removal, and at interval of 6 and 24 h, the plates were photographed by Digital Microscope Eyepiece. The entity of cell migration was measured using image analyzing software Image J, and was expressed as image density.

A further test concerns cutaneous wounds. Kind of test: In vivo wound healing activity, repTOP mitoIRE mouse model. As to conditions: 250 mg/mouse topical. As for the experimental part:
The wound healing activity of the cortexolone 17α-propionate on cutaneous wounds was evaluated in an in vivo test foreseeing the use of repTOP™ mitoIRE mouse model. RepTOP™ mitoIRE mice from TOP® S.r.l. are engineered for the ubiquitous and proliferation-regulated expression of luciferase in proliferating tissues by embedding the transgene containing the minimal promoter of Cyclin B2d driving the firefly luciferase gene within HS4 insulator sequences.
Cortexolone 17α-propionate was dissolved in 0.4% (v/v) tween 80 and 0.5% (w/v) carboxymethylcellulose in normal saline.
The test was carried out comparing the wound healing activity of cortexolone 17α-propionate at two different dosages (50 mg/mouse and 250 mg/mouse) versus the vehicle (i.e. 0.4% (v/v) tween 80 and 0.5% (w/v) carboxymethylcellulose in normal saline) and versus a comparator, i.e. Cicatrene® cream (Johnson&Johnson®), a drug product used in wound management and wound healing.
Animal treatments. The repTOP™ mitoIRE mice were shaved by VEET® depilatory cream a day before the treatment. A round full-thickness wound of 0.4 cm^2 area was made through the dorsal skin and the panniculus carnosus muscle of repTOP™ mitoIRE by using skin biopsy devices (HS biopsy punch).
In vivo test. In order to establish the proliferative stimulating activity of cortexolone 17α-propionate, the vehicle (200 μl/mouse), cortexolone 17α-propionate (50 mg/mouse), cortexolone 17α-propionate (250 mg/mouse) and Cicatrene® (200 mg/mouse) were spread topically on the wound of repTOP™ mitoIRE mice (4 mice per group of treatment), immediately after the generation of the round punch. Photon-emission was measured in wound area at the following times: time 0 and 1, 2, 3 and 6 days after the treatment. A representation of the area of wound selected for the measurements is depicted in FIG. 1.
In vivo imaging. […] Photon emission in wound area was measured using the Living Image Software (Caliper™, a Perkin Elmer™ company) and expressed as photon/second/cm^2/steradian (p/s/cm^2/sr). The measurement of wound areas was expressed as cm^2.

Setting [6] is: daily dose 100 μg test compound + 4 μg TP.
Where [7] appears, read: daily dose 200 μg test compound + 4 μg TP.
Setting [8] is: daily dose 400 μg test compound + 4 μg TP.

In the case of `CCCC(=O)OCC(=O)[C@@]1(OC(=O)CCC)CC[C@H]2[C@@H]3CCC4=CC(=O)CC[C@]4(C)[C@H]3CC[C@@]21C` [Cortexolone 17α,21-dibutyrate, cortexolone 17α,21-dibutyrate], the entries for the “Percent inhibition of testosterone propionate (TP) response” value (“Percent inhibition” for short) in test [1] (setting [6]), in test [1] (setting [7]) and in test [1] (setting [8]) were 84%, 89% and 97%, respectively. For the same compound, the “Mean inhibition (%)” value in test [1] came out at 90%. Also, the “Fibroblast proliferation (Δ% vs. control)” value in test [2] (50 μM) is listed as 9.6%. Moreover, the “proliferative stimulating effect (in words)” value in test [2] is “did not show any proliferative stimulating effect”. Besides, the “Protein synthesis (Δ% vs. control)” value in test [3] (50 μM) is recorded as 0.6%. In test [3], the “effect on extracellular protein synthesis (in words)” value is listed as “did not show any effect in increasing the extracellular protein synthesis”. Besides, the “Procollagen I Synthesis (Δ% vs. control)” value in test [4] (50 μM) is listed as −2.8%. Also, in test [4], the “effect on synthesis of type I procollagen (in words)” value is reported as “did not show any effect in increasing the synthesis of type I procollagen”.
Take `CCC(=O)O[C@]1(C(=O)CO)CC[C@H]2[C@@H]3CCC4=CC(=O)CC[C@]4(C)[C@H]3CC[C@@]21C` [Cortexolone 17α-propionate, cortexolone 17α-propionate]: the “Percent inhibition” value in test [1] (setting [6]) stood at 62%. The “Percent inhibition” value in test [1] (setting [7]) was found to be 69%. The “Percent inhibition” value in test [1] (setting [8]) was determined as 86%. Besides, the “Mean inhibition (%)” value in test [1] is 72%. Besides, in test [2] (1 μM), the “Δ % vs. control (proliferation)” value was −0.95% and the “Absorbance ± SD Treated” value was found to be 2.06 ± 0.15. In addition, in test [2] (5 μM), the “Δ % vs. control (proliferation)” value worked out at 6.71% and the “Absorbance ± SD Treated” value came out at 2.05 ± 0.24. In addition, in test [2] (25 μM), the “Δ % vs. control (proliferation)” value is listed as 7.00% and the “Absorbance ± SD Treated” value was determined as 2.09 ± 0.19. Further, in test [2] (50 μM), the “Δ % vs. control (proliferation)” value turned out to be 30.98%, the “Absorbance ± SD Treated” value was 2.48 ± 0.23 and the “Fibroblast proliferation (Δ% vs. control)” value worked out at 31.0%. Moreover, in test [5] (10 μM), the “Increase from t0 − 24 h (image density)” value was determined as 35.2, the “Image density 6 h” value stood at 24.0 ± 2.4, the “Image density 24 h” value stood at 54.5 ± 2.5 and the “Image density t0” value stood at 19.3 ± 0.8. The “Δ (%) vs. vehicle (migration)” value in test [5] (10 μM) is recorded as 30.3%. In test [5] (50 μM), the “Increase from t0 − 24 h (image density)” value was found to be 44.0, the “Image density 6 h” value is on record as 25.1 ± 1.2, the “Image density 24 h” value was found to be 64.1 ± 5.6 and the “Image density t0” value was found to be 20.1 ± 2.0. Also, in test [5] (50 μM), the “Δ (%) vs. vehicle (migration)” value amounted to 62.9%. Besides, in test [3] (5 μM), the “Δ % vs. control (protein concentration)” value was determined as 0% and the “Protein concentration Treated” value turned out to be 0.5 ± 0.056 mg/mL. Besides, in test [3] (25 μM), the “Δ % vs. control (protein concentration)” value came out at 12.18% and the “Protein concentration Treated” value is reported as 0.884 ± 0.028 mg/mL. Moreover, in test [3] (50 μM), the “Δ % vs. control (protein concentration)” value is given as 27.41%, the “Protein concentration Treated” value is on record as 0.846 ± 0.087 mg/mL and the “Protein synthesis (Δ% vs. control)” value is 27.4%. Besides, in test [4] (10 μM), the “Δ % vs. control (PIP)” value is recorded as −8.27% and the PIP concentration is 949.50 ± 149.81 ng/mL. In addition, in test [4] (50 μM), the “Δ % vs. control (PIP)” value is reported as 199.59%, the PIP concentration is given as 3100.98 ± 152.59 ng/mL and the “Procollagen I Synthesis (Δ% vs. control)” value is recorded as 199.6%. Besides, the “time of maximum increase of proliferative cells after administration” value with cutaneous wounds is on record as 3 days. Moreover, in the test on cutaneous wounds (after 3 days from administration), the “mean reduction in wound area” value is on record as 26%. Moreover, in the test on cutaneous wounds (time 3 days), the “increase of photon-emission from wounds with respect to time 0” value is listed as 143%.
On to `CCCCC(=O)O[C@]1(C(=O)CO)CC[C@H]2[C@@H]3CCC4=CC(=O)CC[C@]4(C)[C@H]3CC[C@@]21C` [Cortexolone 17α-valerate, cortexolone 17α-valerate], for which the “Percent inhibition” value in test [1] (setting [6]) turned out to be 66%; in test [1] (setting [7]), 65%; in test [1] (setting [8]), 73%. Besides, the “Mean inhibition (%)” value in test [1] is reported as 68%. Also, the “Fibroblast proliferation (Δ% vs. control)” value in test [2] (50 μM) is recorded as −33.8%. Also, the “proliferative stimulating effect (in words)” value in test [2] is reported as “did not show any proliferative stimulating effect”. Further, in test [3] (50 μM), the “Protein synthesis (Δ% vs. control)” value is listed as −3.8%. The “effect on extracellular protein synthesis (in words)” value in test [3] is on record as “did not show any effect in increasing the extracellular protein synthesis”. In addition, the “Procollagen I Synthesis (Δ% vs. control)” value in test [4] (50 μM) is recorded as −14.6%. Moreover, in test [4], the “effect on synthesis of type I procollagen (in words)” value is “did not show any effect in increasing the synthesis of type I procollagen”.
On to `C[C@]12CCC(=O)C=C1CC[C@@H]1[C@@H]2[C@@H](O)C[C@@]2(C)[C@H]1CC[C@]2(O)C(=O)CO` [Cortisol, cortisol, reference compound], for which the “Δ % vs. control (proliferation)” value in test [2] (50 μM) is given as −56.84%. In addition, in test [5] (50 μM), the “Increase from t0 − 24 h (image density)” value was determined as 34.4, the “Image density 6 h” value worked out at 22.9 ± 2.7, the “Image density 24 h” value came out at 56.6 ± 4.4 and the “Image density t0” value is 22.2 ± 3.2. In addition, the “Δ (%) vs. vehicle (migration)” value in test [5] (50 μM) is listed as 27.4%. Also, in test [4] (50 μM), the “Δ % vs. control (PIP)” value was −74.94% and the PIP concentration was 259.36 ng/mL.
As for `O=C1O[C@H]([C@@H](O)CO)C(O)=C1O` [Vit. C, L-Ascorbic acid], in test [4] (0.2 mM), the “Δ % vs. control (PIP)” value came to 260.87% and the PIP concentration is reported as 3735.27 ± 515.52 ng/mL.
Consider “rhEGF: recombinant human Epidermal Growth Factor, known fibroblast proliferation promoter, positive control”, for which, in test [2] (100 nM), the “Δ % vs. control (proliferation)” value is 49.49% and the “Absorbance ± SD Treated” value is reported as 2.72 ± 0.22. Moreover, in test [5] (100 nM), the “Increase from t0 − 24 h (image density)” value amounted to 43.6, the “Image density 6 h” value was determined as 21.6 ± 1.0, the “Image density 24 h” value is reported as 65.7 ± 4.2 and the “Image density t0” value came to 22.1 ± 2.9. The “Δ (%) vs. vehicle (migration)” value in test [5] (100 nM) stood at 61.5%. Also, in test [3] (100 nM), the “Δ % vs. control (protein concentration)” value amounted to 49.54% and the “Protein concentration Treated” value is recorded as 0.978 ± 0.074 mg/mL.
